Assay results published in the Kinase Knowledgebase extract (Sharma et al. 2016).
Where “and” joins values, the source holds several entries; their conditions need not be identical. Equal values may be shown once.

target: MAPK14 (human) (UniProt Q16539); test: Inhibition of LPS Stimulated TNF Production by U937 Cells; details: not given
Sequence (Q16539 whole entry, looked up): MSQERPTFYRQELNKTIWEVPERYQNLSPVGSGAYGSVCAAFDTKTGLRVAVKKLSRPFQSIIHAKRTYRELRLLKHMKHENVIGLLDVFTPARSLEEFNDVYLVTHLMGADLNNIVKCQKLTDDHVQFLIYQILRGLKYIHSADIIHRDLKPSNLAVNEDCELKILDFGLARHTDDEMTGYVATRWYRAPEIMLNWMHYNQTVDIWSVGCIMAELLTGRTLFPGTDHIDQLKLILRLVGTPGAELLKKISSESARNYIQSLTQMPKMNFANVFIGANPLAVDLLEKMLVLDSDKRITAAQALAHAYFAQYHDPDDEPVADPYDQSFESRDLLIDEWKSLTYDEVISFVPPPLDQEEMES

| SMILES | IC50 |
| --- | --- |
| Cc1n[nH]c(-c2ccc(N(C)C)cc2)c1-c1ccncc1 | 99 nM |
| Cc1[nH]nc(-c2ccc(Br)cc2)c1-c1ccncc1 | 244 nM |
| O=S(=O)(NCc1[nH]nc(-c2ccc(F)cc2)c1-c1ccncc1)c1cccc2ccccc12 | > 1000 nM |
| COC(=O)CCC(=O)NCc1[nH]nc(-c2ccc(F)cc2)c1-c1ccncc1 | 10000 nM |
| CC(C)COC(=O)NCc1[nH]nc(-c2ccc(F)cc2)c1-c1ccncc1 | 720 nM |
| Cc1n[nH]c(-c2ccccc2)c1-c1ccncc1 | 578 nM |
| CC(C)C(=O)N[C@H](Cc1ccccc1)c1[nH]nc(-c2ccc(F)cc2)c1-c1ccncc1 | > 1000 nM |
| O=S(=O)(c1ccccc1F)N1CCC(c2[nH]nc(-c3ccc(F)cc3)c2-c2ccncc2)CC1 | 5000 nM |
| OCCn1cc(-c2ccnc(NCc3ccc(F)cc3)c2)c(-c2ccc(F)cc2)n1 | 140 nM and 800 nM |
| Cc1n[nH]c(-c2ccc3c(c2)OCO3)c1-c1ccncc1 | 1690 nM |
| C=CCOC(=O)N[C@H](C)c1[nH]nc(-c2ccc(F)cc2)c1-c1ccncc1 | 660 nM |
| CC(C)C(=O)NCc1[nH]nc(-c2ccc(F)cc2)c1-c1ccncc1 | 650 nM |
| CCOc1ccc(-c2[nH]nc(C)c2-c2ccncc2)cc1 | 2360 nM |
| Fc1ccc(-c2n[nH]cc2-c2ccnc(NCc3cccc(F)c3)c2)cc1 | 141 nM |
| CN(C(=O)N[C@H](Cc1ccccc1)c1[nH]nc(-c2ccc(F)cc2)c1-c1ccncc1)c1ccccc1 | > 1000 nM |
| O=C(c1ccc(I)cc1)N1CCC(c2[nH]nc(-c3ccc(F)cc3)c2-c2ccncc2)CC1 | 270 nM |
| O=S(=O)(NCc1[nH]nc(-c2ccc(F)cc2)c1-c1ccncc1)c1ccc(F)cc1 | 2780 nM |
| CN(C)c1n[nH]c(-c2ccc(F)cc2)c1-c1ccncc1 | 484 nM |
| O=C(c1ccccn1)N1CCC(c2[nH]nc(-c3ccc(F)cc3)c2-c2ccncc2)CC1 | 250 nM |
| CCCCS(=O)(=O)NCc1[nH]nc(-c2ccc(F)cc2)c1-c1ccncc1 | 5000 nM |
| CNC(=O)CC[C@H](NC(=O)Nc1ccccc1F)c1[nH]nc(-c2ccc(F)cc2)c1-c1ccncc1 | > 1000 nM |
| Cn1cc(-c2ccnc(F)c2)c(-c2ccc(F)c(F)c2)n1 | 1280 nM |
| Fc1ccc(CNc2cc(-c3cnn(CCN4CCOCC4)c3-c3ccc(F)cc3)ccn2)cc1 | 450 nM |
| O=C(NCc1[nH]nc(-c2ccc(F)cc2)c1-c1ccncc1)c1ccc(F)c(F)c1 | 1010 nM |
| COc1cccc(CC(=O)N2CCC(c3[nH]nc(-c4ccc(F)cc4)c3-c3ccncc3)CC2)c1 | 770 nM |
| CN(C)CCn1cc(-c2ccnc(NCc3ccc(F)cc3)c2)c(-c2ccc(F)cc2)n1 | 920 nM |

same assay, conditions: concentration not given here

| SMILES | inhibition |
| --- | --- |
| C[C@H](NC(=O)N1CCOCC1)c1[nH]nc(-c2ccc(F)cc2)c1-c1ccncc1 | 37% |
| C[C@@H](NS(=O)(=O)c1ccc(F)cc1Cl)c1[nH]nc(-c2ccc(F)cc2)c1-c1ccncc1 | 81% |
| CCCNC(=O)NCc1[nH]nc(-c2ccc(F)cc2)c1-c1ccncc1 | 39% |
| C[C@@H](NC(=O)[C@H]1CCCN1)c1[nH]nc(-c2ccc(F)cc2)c1-c1ccncc1 | 39% |
| C[C@@H](NC(=O)c1cccc(F)c1)c1[nH]nc(-c2ccc(F)cc2)c1-c1ccncc1 | 52% |
| C[C@@H](NS(=O)(=O)c1cc(Cl)cc(Cl)c1)c1[nH]nc(-c2ccc(F)cc2)c1-c1ccncc1 | 91% |
| CC(C)=CC(=O)N[C@@H](C)c1[nH]nc(-c2ccc(F)cc2)c1-c1ccncc1 | 21% |
| CCCCCCCCS(=O)(=O)NCc1[nH]nc(-c2ccc(F)cc2)c1-c1ccncc1 | 12% |
| C[C@H](NC(=O)c1ccc(Cl)cc1)c1[nH]nc(-c2ccc(F)cc2)c1-c1ccncc1 | 32% |
| O=S(=O)(NCCc1[nH]nc(-c2ccc(F)cc2)c1-c1ccncc1)c1ccc(Cl)cc1Cl | 31% |
| COc1ccc(C)cc1S(=O)(=O)N[C@@H](C)c1[nH]nc(-c2ccc(F)cc2)c1-c1ccncc1 | 76% |
| CNC(=O)N[C@H](C)c1[nH]nc(-c2ccc(F)cc2)c1-c1ccncc1 | 50% |
| C[C@H](NC(=O)c1cc(Cl)cc(Cl)c1)c1[nH]nc(-c2ccc(F)cc2)c1-c1ccncc1 | 3% |
| O=C(N[C@H](Cc1ccccc1)c1[nH]nc(-c2ccc(F)cc2)c1-c1ccncc1)c1cccnc1 | 38% |
| C[C@@H](NC(=O)Nc1cccc(F)c1)c1[nH]nc(-c2ccc(F)cc2)c1-c1ccncc1 | 27% |
| C[C@@H](NS(=O)(=O)c1ccccc1S(C)(=O)=O)c1[nH]nc(-c2ccc(F)cc2)c1-c1ccncc1 | 80% |
| C[C@H](NS(=O)(=O)c1ccc(-c2ccccc2)cc1)c1[nH]nc(-c2ccc(F)cc2)c1-c1ccncc1 | 91% |
| Cc1ccccc1C(=O)N[C@H](C)c1[nH]nc(-c2ccc(F)cc2)c1-c1ccncc1 | 42% |
| C[C@H](NS(=O)(=O)c1ccccc1Br)c1[nH]nc(-c2ccc(F)cc2)c1-c1ccncc1 | 81% |
| C[C@H](NC(=O)c1cccc(Cl)c1Cl)c1[nH]nc(-c2ccc(F)cc2)c1-c1ccncc1 | 17% |
| C[C@@H](NS(=O)(=O)c1cccc(C(F)(F)F)c1)c1[nH]nc(-c2ccc(F)cc2)c1-c1ccncc1 | 97% |
| C[C@@H](NC(=O)c1c(F)cc(F)cc1F)c1[nH]nc(-c2ccc(F)cc2)c1-c1ccncc1 | 75% |

| SMILES | inhibition |
| --- | --- |
| C[C@H](NS(=O)(=O)c1cccc(Br)c1)c1[nH]nc(-c2ccc(F)cc2)c1-c1ccncc1 | 79% |
| COc1ccc(C(=O)NCc2[nH]nc(-c3ccc(F)cc3)c2-c2ccncc2)cc1OC | 22% |
| Cc1ccccc1S(=O)(=O)NCc1[nH]nc(-c2ccc(F)cc2)c1-c1ccncc1 | 24% |
| C[C@@H](NS(=O)(=O)c1ccc(Cl)s1)c1[nH]nc(-c2ccc(F)cc2)c1-c1ccncc1 | 95% |
| O=S(=O)(NCc1[nH]nc(-c2ccc(F)cc2)c1-c1ccncc1)c1ccc(F)cc1Cl | 40% |
| O=S(=O)(NCc1[nH]nc(-c2ccc(F)cc2)c1-c1ccncc1)c1cccc2nonc12 | 54% |
| C[C@@H](NC(=O)c1cc(F)cc(F)c1)c1[nH]nc(-c2ccc(F)cc2)c1-c1ccncc1 | 48% |
| C[C@H](NC(=O)c1ccc(F)c(C(F)(F)F)c1)c1[nH]nc(-c2ccc(F)cc2)c1-c1ccncc1 | 27% |
| Cc1c(Cl)cccc1S(=O)(=O)N[C@@H](C)c1[nH]nc(-c2ccc(F)cc2)c1-c1ccncc1 | 54% |
| O=C(NCc1[nH]nc(-c2ccc(F)cc2)c1-c1ccncc1)c1cccc(OC(F)(F)F)c1 | 22% |
| C[C@@H](NC(=O)c1ccc(C(F)(F)F)cc1)c1[nH]nc(-c2ccc(F)cc2)c1-c1ccncc1 | 63% |
| O=S(=O)(NCCc1[nH]nc(-c2ccc(F)cc2)c1-c1ccncc1)c1cccc(Cl)c1Cl | 21% |
| Cc1noc(C)c1S(=O)(=O)NCc1[nH]nc(-c2ccc(F)cc2)c1-c1ccncc1 | 1% |
| O=S(=O)(NCc1[nH]nc(-c2ccc(F)cc2)c1-c1ccncc1)c1ccc(-c2ccon2)s1 | 89% |
| C[C@H](NC(=O)[C@@H]1CCCN1)c1[nH]nc(-c2ccc(F)cc2)c1-c1ccncc1 | 47% |
| CCNC(=O)N[C@@H](C)c1[nH]nc(-c2ccc(F)cc2)c1-c1ccncc1 | 50% |
| C[C@H](NC(=O)c1c(F)cccc1F)c1[nH]nc(-c2ccc(F)cc2)c1-c1ccncc1 | 56% |
| Cc1cc(C)c(S(=O)(=O)N[C@H](C)c2[nH]nc(-c3ccc(F)cc3)c2-c2ccncc2)c(C)c1 | 65% |
| C[C@@H](NS(=O)(=O)c1ccc(Br)cc1)c1[nH]nc(-c2ccc(F)cc2)c1-c1ccncc1 | 89% |
| COc1ccc(NC(=O)N[C@@H](C)c2[nH]nc(-c3ccc(F)cc3)c2-c2ccncc2)c(OC)c1 | 21% |
| C[C@@H](NC(=O)[C@@H]1CCCN1)c1[nH]nc(-c2ccc(F)cc2)c1-c1ccncc1 | 27% |
| CC(=O)Nc1ccc(S(=O)(=O)N[C@H](C)c2[nH]nc(-c3ccc(F)cc3)c2-c2ccncc2)cc1 | 64% |

| SMILES | inhibition |
| --- | --- |
| CCc1ccc(S(=O)(=O)N[C@@H](C)c2[nH]nc(-c3ccc(F)cc3)c2-c2ccncc2)cc1 | 92% |
| C[C@@H](NC(=O)C1CC1)c1[nH]nc(-c2ccc(F)cc2)c1-c1ccncc1 | 46% |
| C[C@H](NC(=O)NCCc1ccccc1)c1[nH]nc(-c2ccc(F)cc2)c1-c1ccncc1 | 36% |
| O=C(NCc1[nH]nc(-c2ccc(F)cc2)c1-c1ccncc1)c1cc(F)cc(C(F)(F)F)c1 | 26% |
| O=C(NCc1[nH]nc(-c2ccc(F)cc2)c1-c1ccncc1)c1ccco1 | 8% |
| O=C(NCc1[nH]nc(-c2ccc(F)cc2)c1-c1ccncc1)c1ccccc1Br | 50% |
| O=C(NCc1[nH]nc(-c2ccc(F)cc2)c1-c1ccncc1)NC(=O)c1ccccc1 | 28% |
| CCCOC(=O)N[C@H](C)c1[nH]nc(-c2ccc(F)cc2)c1-c1ccncc1 | 54% |
| O=S(=O)(c1cccc(Cl)c1)N1CCC(c2[nH]nc(-c3ccc(F)cc3)c2-c2ccncc2)CC1 | 31% |
| CN(C)c1cccc2c(S(=O)(=O)NCCc3[nH]nc(-c4ccc(F)cc4)c3-c3ccncc3)cccc12 | 28% |
| C[C@H](NS(=O)(=O)C[C@]12CC[C@@H](CC1=O)C2(C)C)c1[nH]nc(-c2ccc(F)cc2)c1-c1ccncc1 | 60% |
| O=S(=O)(c1cccc(C(F)(F)F)c1)N1CCC(c2[nH]nc(-c3ccc(F)cc3)c2-c2ccncc2)CC1 | 10% |
| Cc1c(-c2ccncc2)c(-c2ccc(F)cc2)nn1CC(=O)NCCCN1CCN(C)CC1 | 30% |
| C[C@H](NS(=O)(=O)c1cccc2cccnc12)c1[nH]nc(-c2ccc(F)cc2)c1-c1ccncc1 | 58% |
| CC(C)OC(=O)N[C@H](C)c1[nH]nc(-c2ccc(F)cc2)c1-c1ccncc1 | 45% |
| O=C(NCc1[nH]nc(-c2ccc(F)cc2)c1-c1ccncc1)c1ccc(F)c(F)c1 | 26% |
| COc1ccc(Cl)cc1S(=O)(=O)N[C@H](C)c1[nH]nc(-c2ccc(F)cc2)c1-c1ccncc1 | 87% |
| C[C@@H](NC(=O)c1ccc(F)cc1F)c1[nH]nc(-c2ccc(F)cc2)c1-c1ccncc1 | 77% |
| CCOC(=O)c1ccc(NC(=O)NCc2[nH]nc(-c3ccc(F)cc3)c2-c2ccncc2)cc1 | 13% |
| C[C@@H](NS(=O)(=O)c1ccccc1)c1[nH]nc(-c2ccc(F)cc2)c1-c1ccncc1 | 54% |
| COc1cc(NC(=O)NCc2[nH]nc(-c3ccc(F)cc3)c2-c2ccncc2)cc(OC)c1OC | 29% |
| CCOC(=O)C(CC(C)C)NC(=O)NCc1[nH]nc(-c2ccc(F)cc2)c1-c1ccncc1 (configuration not stated) | 9% |
